Test results taken from US20020114786A1, “Pharmaceutical preparations comprising soybean isoflavone extracts and probiotic microogranisms” (priority 2000, published 2002).
Like-named read-outs stand apart in the source and are kept apart here.

Experiments:
bone = settings: cited from earlier work
Enterococcus faecium = test: metabolism of soybean extract isoflavones in microbial culture, HPLC assay; type: in vitro ADME
Protocol: (§1) At each of these times, a sample is removed from the microbial cultures, diluted with an equal volume of methanol and then filtered. In each case, the methanolic solution is analyzed by high performance liquid chromatography. […] In this way, the contents of the aglycone and glycosylated forms in the metabolized extract are calculated with respect to the glycosylated forms (100%) in the initial extract.

[1] = system: Lactobacillus acidophilus; test: as above; type: in vitro ADME
Protocol: as §1

Lactobacillus brevis = test: as above; type: in vitro ADME
Protocol: as §1

Lactobacillus casei = test: as above; type: in vitro ADME
Protocol: as §1

Lactobacillus plantarum = test: as above; type: in vitro ADME
Protocol: as §1

Lactobacillus rhamnosus = test: as above; type: in vitro ADME
Protocol: as §1

Pediococcus acidilactici = test: as above; type: in vitro ADME
Protocol: as §1

[2] = system: Propionibacterium acidipropionici; test: as above; type: in vitro ADME
Protocol: as §1

[3] = system: Streptococcus thermophilus; test: as above; type: in vitro ADME
Protocol: as §1

type II (β) receptors = settings: activity of estradiol set at 100; cited from earlier work
osteoclastic activity = settings: cited from earlier work
[4] = selecting isoflavone-metabolizing microorganisms; settings: microbial culture with soybean extract
Protocol: At each of these times, a sample is removed from the microbial cultures, diluted with an equal volume of methanol and then filtered. In each case, the methanolic solution is analyzed by high performance liquid chromatography. High performance liquid chromatography is used to assay daidzine, genistine, daidzein and genistein in the initial extract and in the media metabolized by the different microorganisms. In this way, the contents of the aglycone and glycosylated forms in the metabolized extract are calculated with respect to the glycosylated forms (100%) in the initial extract.

## CC(C)Oc1ccc2c(=O)c(-c3ccccc3)coc2c1 [ipriflavone]
bone; 500 to 600 mg per day, 40 menopausal women suffering from osteoporosis
  bone gain: bone gain at the level of L1-L5, with a return to normal in 12 months
bone; women being treated with LHRH agonists
  bone losses: possible to avoid bone losses

## O=c1c(-c2ccc(O)cc2)coc2cc(O)cc(O)c12 [Genistein, genistein]
Enterococcus faecium; Enterococcus faecium culture, cultured 24, 48 and 72 hours, time not given
  content in the metabolized extract with respect to the glycosylated forms (100%) in the initial extract: 80%
[1]; Lactobacillus acidophilus culture, time not given
  content in the metabolized extract with respect to the glycosylated forms (100%) in the initial extract: 83%
Lactobacillus brevis; Lactobacillus brevis culture, time not given
  content in the metabolized extract with respect to the glycosylated forms (100%) in the initial extract: 81%
Lactobacillus casei; Lactobacillus casei culture, time not given
  content in the metabolized extract with respect to the glycosylated forms (100%) in the initial extract: 13%
Lactobacillus plantarum; Lactobacillus plantarum culture, time not given
  content in the metabolized extract with respect to the glycosylated forms (100%) in the initial extract: 44%
Lactobacillus rhamnosus; Lactobacillus rhamnosus culture, time not given
  content in the metabolized extract with respect to the glycosylated forms (100%) in the initial extract: 85%
Pediococcus acidilactici; Pediococcus acidilactici culture, time not given
  content in the metabolized extract with respect to the glycosylated forms (100%) in the initial extract: 30%
[2]; Propionibacterium acidipropionici culture, time not given
  content in the metabolized extract with respect to the glycosylated forms (100%) in the initial extract: 72%
[3]; Streptococcus thermophilus culture, time not given
  content in the metabolized extract with respect to the glycosylated forms (100%) in the initial extract: 25%
Type II (β) receptors
  estrogenic activity: 0.084
Osteoclastic activity
  osteoclastic activity: inhibits osteoclastic activity

## estradiol [reference compound]
Type II (β) receptors
  estrogenic activity: 100

## O=c1c(-c2ccc(O)cc2)coc2cc(O[C@@H]3O[C@H](CO)[C@@H](O)[C@H](O)[C@H]3O)cc(O)c12 [Genistine, genistine]
Enterococcus faecium; Enterococcus faecium, 72 h
  content in the metabolized extract with respect to the glycosylated forms (100%) in the initial extract: 5.5%
[1]; Lactobacillus acidophilus
  content in the metabolized extract with respect to the glycosylated forms (100%) in the initial extract: 6.5%
Lactobacillus brevis; Lactobacillus brevis
  content in the metabolized extract with respect to the glycosylated forms (100%) in the initial extract: 2%
Lactobacillus casei; Lactobacillus casei
  content in the metabolized extract with respect to the glycosylated forms (100%) in the initial extract: 85%
Lactobacillus plantarum; Lactobacillus plantarum
  content in the metabolized extract with respect to the glycosylated forms (100%) in the initial extract: 53%
Lactobacillus rhamnosus; Lactobacillus rhamnosus
  content in the metabolized extract with respect to the glycosylated forms (100%) in the initial extract: 5%
Pediococcus acidilactici; Pediococcus acidilactici
  content in the metabolized extract with respect to the glycosylated forms (100%) in the initial extract: 63%
[2]; Propionibacterium acidipropionici
  content in the metabolized extract with respect to the glycosylated forms (100%) in the initial extract: 12%
[3]; Streptococcus thermophilus
  content in the metabolized extract with respect to the glycosylated forms (100%) in the initial extract: 73%

## O=c1c(-c2ccc(O)cc2)coc2cc(O)ccc12 [Daidzein, daidzein]
Type II (β) receptors
  estrogenic activity: 0.013

## O=c1c(-c2ccc(O)cc2)coc2cc(O[C@@H]3O[C@H](CO)[C@@H](O)[C@H](O)[C@H]3O)ccc12 [Daidzine, daidzine]
Enterococcus faecium; 72 h
  content in the metabolized extract with respect to the glycosylated forms (100%) in the initial extract: 0.1%
[1]
  content in the metabolized extract with respect to the glycosylated forms (100%) in the initial extract: 16%
Lactobacillus brevis
  content in the metabolized extract with respect to the glycosylated forms (100%) in the initial extract: 16%
Lactobacillus casei
  content in the metabolized extract with respect to the glycosylated forms (100%) in the initial extract: 80%
Lactobacillus plantarum
  content in the metabolized extract with respect to the glycosylated forms (100%) in the initial extract: 75%
Lactobacillus rhamnosus
  content in the metabolized extract with respect to the glycosylated forms (100%) in the initial extract: 26%
Pediococcus acidilactici
  content in the metabolized extract with respect to the glycosylated forms (100%) in the initial extract: 77%
[2]
  content in the metabolized extract with respect to the glycosylated forms (100%) in the initial extract: 33%
[3]
  content in the metabolized extract with respect to the glycosylated forms (100%) in the initial extract: 65%

## Oc1ccc([C@H]2COc3cc(O)ccc3C2)cc1 [equol, reference compound]
Type II (β) receptors
  estrogenic activity: 0.61

## Lactobacillus acidophilus
[4]
  ranking of strains by isoflavone-metabolizing activity: the most active strains
